Reference: PMC10960705 (Cell chemical biology, 2023)
Blank lines part the entries; values can stand above or below the compound they belong to.

How the values were obtained:
Type in all cases: cell-based
[1] = molecular target: peptidyl-prolyl cis/trans isomerase PIN1 (Homo sapiens, UniProt Q13526); assay: TMT-ABPP dose-response competition with DBIA probe in lysate
[2] = molecular target: VLDLR (Homo sapiens, UniProt P98155); assay: TMT-ABPP competition with DBIA probe in lysate
[3] = molecular target: KRAS^G12C (Homo sapiens, UniProt P01116, G12C); assay: TMT-ABPP competition with DBIA probe in HCC44 lysate, […], […] hr

Sequence of peptidyl-prolyl cis/trans isomerase PIN1 (Q13526 whole entry): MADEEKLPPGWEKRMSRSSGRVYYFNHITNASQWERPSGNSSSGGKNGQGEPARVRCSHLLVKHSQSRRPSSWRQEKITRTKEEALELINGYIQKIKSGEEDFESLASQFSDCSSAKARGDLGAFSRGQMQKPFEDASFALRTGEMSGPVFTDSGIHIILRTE

SMILES: CC(C)(C)CN(C(=O)CCl)C1CCS(=O)(=O)C1 (stereo not drawn) [Sulfopin]
- TMT-ABPP dose-response competition with DBIA probe in lysate [1]: Sulfopin is the most potent among the four whereas CL41 is the least

SMILES: C=CC(=O)N1CCCC(n2ccnn2)CC1 (stereo not drawn) [AC19, 1-(4-(1H-1,2,3-triazol-1-yl)azepan-1-yl)prop-2-en-1-one]
- TMT-ABPP competition with DBIA probe in lysate [2]: reside in their respective EGF-like domains and were all exclusively and significantly engaged by AC19

- TMT-ABPP competition with DBIA probe in HCC44 lysate, 50 μM, 1 hr [3]: 2.7 competition ratio (CR) at 50 μM
SMILES: C=CC(=O)N1CCN(c2ncnc3c(F)c(-c4c(O)cccc4F)c(Cl)cc23)CC1 [ARS-1620]
